Results taken from EP0190900A2, “Cephalosporin compounds, their production, and pharmaceutical compositions containing them” (YAMANOUCHI PHARMACEUTICAL CO. LTD., priority 1985, dated 1986).
≈ marks a conversion by molar mass, not a printed value.

Assays:
[1] = tested on: K. pneumoniae ATCC 10031; experiment: Antibacterial activity (minimum effective inhibitory concentration); type: cell-based; settings: Klebsiella pneumoniae, ATCC10031
Excerpt: (§1) Antibacterial activities (minimum effective inhibitory concentrations) of compounds of formula I (taken from the following Examples) are shown in the following Table.

[2] = tested on: S. aureus FDA 209P JC-1; experiment: as above; type: cell-based; settings: Staphylococcus aureus, FDA209P
Excerpt: as §1

[3] = tested on: S. epidermidis IID 866; experiment: as above; type: cell-based; settings: Staphylococcus epidermidis, IID866
Excerpt: as §1

[4] = tested on: E. coli D-1; experiment: as above; type: cell-based; settings: Escherichia coli, D1
Excerpt: as §1

[5] = tested on: P. aeruginosa NCTC 10490; experiment: as above; type: cell-based; settings: Pseudomonas aeruginosa, NCTC10490
Excerpt: as §1

[6] = Acute toxicity, intravenous injection into mice; type: in vivo
Experimental: Some of the compounds of this invention have low toxicity (acute toxicity).
The compound of Example 4 has, in particular, low toxicity.
200 mg of /the compound of Example 4 was dissolved in 2 ml of distilled water and after adjusting the pH of the solution to about 7 by addition of sodium hydrogen carbonate to form an injection solution, the solution was intravenously injected into mice (body weights: 26-28 g; ICR ? 5W) over a period of 4 minutes at a rate of 1 ml/kg. There were no lethal cases for administration doses below 4.0 g/kg.

MIC [1]	MIC [2]	MIC [3]	MIC [4]	MIC [5]	Structure (SMILES)	administration doses with no lethal cases ([6]; ICR mice (26-28 g), intravenous injection over 4 minutes, aqueous solution at about pH 7)	toxicity (acute toxicity) ([6]; statement in words)
≤ 0.006 µg/mL	1.56 µg/mL (≈ 3.05 µM)	0.39 µg/mL (≈ 0.762 µM)	0.025 µg/mL (≈ 0.0489 µM)	0.2 µg/mL (≈ 0.391 µM)	CO/N=C(\C(=O)N[C@@H]1C(=O)N2C(C(=O)O)=C(CSc3nnnn3C)CS[C@H]12)c1csc(N)n1 [Cefmeno-xime]	–	–
0.013 µg/mL (≈ 0.0219 µM)	0.2 µg/mL (≈ 0.336 µM)	0.1 µg/mL (≈ 0.168 µM)	0.025 µg/mL (≈ 0.042 µM)	0.39 µg/mL (≈ 0.656 µM)	CC(=O)C[n+]1ccc(SCC2=C(C(=O)[O-])N3C(=O)C(NC(=O)C(=NOCCF)c4csc(N)n4)C3SC2)cc1 (stereo not drawn) [Example 12, (Z)-7-[α-(2-amino-4-thiazolyl)-α-(2-fluoroethoxyimino)acetamidoa-3-[1-acetonyl-4-pyridinio]thiomethyl-Δ^3-cephem-4-carboxylate]	–	–

More lines, now with the values behind:

Structure (SMILES)	MIC [1]	MIC [2]	MIC [3]	MIC [4]	MIC [5]	administration doses with no lethal cases ([6]; ICR mice (26-28 g), intravenous injection over 4 minutes, aqueous solution at about pH 7)	toxicity (acute toxicity) ([6]; statement in words)
CO/N=C(\C(=O)N[C@@H]1C(=O)N2C(C(=O)[O-])=C(CSc3cc[n+](CC#N)cc3)CS[C@H]12)c1csc(N)n1 [Example 1, (Z)-7-[α-(2-amino-4-thiazolyl)-α-(methoxyimino)acetamido]-3-(1-cyanomethyl-4-pyridinio)thiomethyl-Δ^3-cephem-4-carboxylate]	0.013 µg/mL (≈ 0.0238 µM)	0.2 µg/mL (≈ 0.367 µM)	0.1 µg/mL (≈ 0.183 µM)	0.013 µg/mL (≈ 0.0238 µM)	0.39 µg/mL (≈ 0.715 µM)	–	–
CO/N=C(\C(=O)N[C@@H]1C(=O)N2C(C(=O)[O-])=C(CSc3cc[n+](CC(C)=O)cc3)CS[C@H]12)c1csc(N)n1 [Example 4, (Z)-7-[α-(2-amino-4-thiazolyl)-α-(methoxyimino)acetamido]-3-[1-acetonyl-4-pyridinio)thiomethyl-Δ^3-cephem-4-carboxylate]	≤ 0.006 µg/mL	0.2 µg/mL (≈ 0.355 µM)	0.1 µg/mL (≈ 0.178 µM)	≤ 0.006 µg/mL	0.2 µg/mL (≈ 0.355 µM)	below 4.0 g/kg	low toxicity
C#CC[n+]1ccc(SCC2=C(C(=O)[O-])N3C(=O)[C@@H](NC(=O)/C(=N\OC)c4csc(N)n4)[C@H]3SC2)cc1 [Example 9, (Z)-7-[a-(2-amino-4-thiazolyl)-a-(methoxyimino)acetamido]-3-[1-propargyl-4-pyridinio]thiomethyl-Δ^3-cephem-4-carboxylate]	≤ 0.006 µg/mL	0.1 µg/mL (≈ 0.184 µM)	0.1 µg/mL (≈ 0.184 µM)	≤ 0.006 µg/mL	0.39 µg/mL (≈ 0.716 µM)	–	–
CO/N=C(\C(=O)N[C@@H]1C(=O)N2C(C(=O)[O-])=C(CSc3cc[n+](Cc4c[nH]cn4)cc3)CS[C@H]12)c1csc(N)n1 [Example 15, (Z)-7-[α-(2-amino-4-thiazolyl)-α-(methoxyimino)acetamido]-3-(1-(4-imidazolyl)methyl-4-pyridinio)thiomethyl-Δ^3-cephem-4-carboxylate]	0.013 µg/mL (≈ 0.0222 µM)	0.2 µg/mL (≈ 0.341 µM)	0.1 µg/mL (≈ 0.17 µM)	0.013 µg/mL (≈ 0.0222 µM)	0.39 µg/mL (≈ 0.665 µM)	–	–
CON=C(C)C[n+]1ccc(SCC2=C(C(=O)[O-])N3C(=O)C(NC(=O)C(=NOC)c4csc(N)n4)C3SC2)cc1 (stereo not drawn) [Example 17, (Z)-7-[α-(2-amino-4-thiazolyl)-α-(methoxyimino)acetamido]-3-(1-(2-methoxyimino-propyl)-4-pyridinio)thiomethyl-Δ^3-cephem-4-carboxylate]	0.013 µg/mL (≈ 0.022 µM)	0.2 µg/mL (≈ 0.338 µM)	0.2 µg/mL (≈ 0.338 µM)	0.013 µg/mL (≈ 0.022 µM)	0.78 µg/mL (≈ 1.32 µM)	–	–
CCCC(=O)C[n+]1ccc(SCC2=C(C(=O)[O-])N3C(=O)C(NC(=O)C(=NOC)c4csc(N)n4)C3SC2)cc1 (stereo not drawn) [Example 20, (Z)-7-[α-(2-Amino-4-thiazolyl)-α-(methoxyimino)acetamido]-3-[(1-(2-oxopentyl)-4-pyridinio]thiomethyl-Δ^3-cephem-4-carboxylate]	≤ 0.006 µg/mL	0.2 µg/mL (≈ 0.339 µM)	0.1 µg/mL (≈ 0.169 µM)	≤ 0.006 µg/mL	0.39 µg/mL (≈ 0.66 µM)	–	–
